Reference: patent US8067423B2, “Polymorphs of dasatinib isopropyl alcohol and process for preparation thereof” (Teva Pharmaceutical Industries Ltd., priority 2007, dated 2011)
One block for each molecule: values may come before it.

Experiments:
Type in all cases: physicochemical
[1] = Blend with excipients pressed to a tablet, analyzed by PXRD; details: 70 mg form A3 with lactose monohydrate, magnesium stearate, microcrystalline celulose, hydroxypropylmethyl celulose
Method: (§1) XRD diffraction was performed on X-Ray powder diffractometer: Philips X'pert Pro powder diffractometer, CuKα radiation, λ=1.5418 Å. X'Celerator detector active length (2 theta)=2.122°, laboratory temperature 22-25° C. Zero background sample holders. Prior to analysis the samples were gently ground by means of mortar and pestle in order to obtain a fine powder. The ground sample was adjusted into a cavity of the sample holder and the surface of the sample was smoothed by means of a cover glass.

[2] = Heating of form A3 on oil bath up to 208° C., MS check; details: 200 mg heated gradually up to 208° C. at final 0.7 Pa for about 15 min
Method: Dasatinib (200 mg, form A3) was heated on oil bath gradually up to 208° C. at final 0.7 Pa for about 15 min.

[3] = Slurry of form N-6 in methanol: conversion to form B, solid phase analyzed by PXRD; details: for content of form B in the recovered solid (PXRD): form N-6 75 mg slurried in 1 ml methanol, filtered, dried on air
Method: as §1
Dasatinib (form N-6, 75 mg) was put into vial and 1 ml of methanol was added. The slurry was then left at 0° C. for 2 days. The solid phase was filtered off and left to dry on air.
Dasatinib (form N-6, 75 mg) was put into vial and 1 ml of methanol was added. The slurry was then left at 20° C. for 2 days respectively. The solid phase was filtered off and left to dry on air.

crystalline form found in the pressed tablet (PXRD) [1]: belonging to form A3
chemical change on heating (MS) [2]: without any chemical change
sublimation on heating [2]: None sublimation was observed
Structure (SMILES): Cc1nc(Nc2ncc(C(=O)Nc3c(C)cccc3Cl)s2)cc(N2CCN(CCO)CC2)n1 [form A3, dasatinib]

stability of the crystalline form ([3]; at a temperature of about 20° C. and below): relatively stable
Structure (SMILES): Cc1nc(Nc2ncc(C(=O)Nc3c(C)cccc3Cl)s2)cc(N2CCN(CCO)CC2)n1 [form B, dasatinib]

content of form B in the recovered solid (PXRD) ([3]; left at 0° C. for 2 days): about 10%
content of form B in the recovered solid (PXRD) ([3]; left at 20° C. for 2 days): about 1%
polymorphic conversion on slurrying ([3]; slurried at about 20° C. to about 0° C. for 2 days): converted to form B
Structure (SMILES): Cc1nc(Nc2ncc(C(=O)Nc3c(C)cccc3Cl)s2)cc(N2CCN(CCO)CC2)n1 [form N-6, dasatinib]
